Measurements from patent US20110039860A1, “SOLUBLE EPOXIDE HYDROLASE INHIBITORS, COMPOSITIONS CONTAINING SUCH COMPOUNDS AND METHODS OF TREATMENT” (priority 2008, published 2011).

target: T1, human sEH enzyme (Homo sapiens, UniProt P34913); assay: sEH human enzyme assay (fluorescence based enzyme in vitro assay); assay type: biochemical; details: recombinant human sEH about 1 nM, fluorescence substrate S7 10 uM, 25° C.; read-out: IC50 [nM] for human sEH enzyme inhibition
T1 construct: His-tag (pET100 vector) (N, cleaved yes); made in house; host or cells: E. coli
T1 sequence (P34913 1-555): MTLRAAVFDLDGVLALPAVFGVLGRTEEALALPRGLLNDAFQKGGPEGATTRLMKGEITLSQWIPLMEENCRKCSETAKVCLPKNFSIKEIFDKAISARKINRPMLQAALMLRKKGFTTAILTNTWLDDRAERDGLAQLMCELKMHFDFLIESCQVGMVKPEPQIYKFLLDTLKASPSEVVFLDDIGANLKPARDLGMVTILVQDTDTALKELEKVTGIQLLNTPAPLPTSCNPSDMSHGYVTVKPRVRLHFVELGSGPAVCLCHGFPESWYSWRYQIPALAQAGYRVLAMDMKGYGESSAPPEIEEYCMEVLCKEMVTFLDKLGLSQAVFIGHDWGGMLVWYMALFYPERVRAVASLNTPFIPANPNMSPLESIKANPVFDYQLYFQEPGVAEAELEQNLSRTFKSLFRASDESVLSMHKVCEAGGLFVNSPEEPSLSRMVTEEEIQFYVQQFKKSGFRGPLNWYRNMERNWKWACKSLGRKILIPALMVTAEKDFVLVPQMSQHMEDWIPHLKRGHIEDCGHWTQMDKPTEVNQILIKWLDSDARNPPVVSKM
From the text: Preparation of Recombinant sEH Human Enzyme
The DNA for expressing sEH was designed based on a […] sEH cDNA, modified to optimize for expression both in E. coli and insect cells. The designed DNA fragment encodes a protein sequence that is identical to full length human sEH, and the DNA was synthesized in vitro. The DNA was then subcloned into the pET100 vector that will generate a fusion protein with an N-terminal His-tag. The recombinant protein was expressed in E. coli. The sEH enzyme was affinity purified by a Ni^++ column. His-tag was removed by Enter Kinase (EK) digestion. The purified enzyme aliquots were frozen and held at −80° C. for later use. Fluorescence Based Enzyme in vitro Assay For each assay (100 ul), an aliquot of enzymes (about 1 nM final concentration) was incubated with a fluorescence substrate, S7 (10 uM final concentration), in sEH assay buffer (25 mM HEPES, […], 0.1 mg/ml BSA) in a 96-well plate. The kinetic reaction reading (Ex330/Em465) was conducted using a plate reader, Spectra max (Molecular Devices) at 25° C.

SMILES	IC50
Fc1cccc(C(F)(F)F)c1-c1ccc(NCC2CCCCC2)nc1 [Compound I-1, N-(cyclohexylmethyl)-5-[2-fluoro-6-(trifluoromethyl)phenyl]pyridin-2-amine]	1 nM
O=C(c1cccnc1)N1CCC(CNc2ccc(-c3ccccc3C(F)(F)F)cn2)CC1 [Compound I-4]	9 nM
Fc1cccc(Cl)c1CCNc1ccc(-c2c(F)cccc2C(F)(F)F)cn1 [Compound I-5]	2 nM
O=C(c1ccccc1C(F)(F)F)N1CCC(CNc2ccc(-c3ccccc3C(F)(F)F)cn2)CC1 [Compound I-6]	3 nM
FC(F)(F)c1ccccc1-c1ccc(NCc2cccc3ccccc23)nc1 [Compound I-10]	31 nM
Clc1ccccc1-c1ccc(NCC2CCCCC2)nc1 [Compound I-11]	32 nM
FC(F)(F)Oc1cccc(CNc2ccc(-c3ccccc3C(F)(F)F)cn2)c1 [Compound I-12]	52 nM
O=S(=O)(c1ccccc1C(F)(F)F)N1CCC(CNc2ccc(-c3ccccc3C(F)(F)F)cn2)CC1 [Compound I-13]	18 nM
CC(C)(C)OC(=O)N1CCC(CNc2ccc(-c3cnccc3C(F)(F)F)cn2)CC1 [Compound I-15]	8 nM
FC(F)(F)c1ccccc1-c1cnc(NCC2CCCCC2)cn1 [Compound I-18]	651 nM
Fc1cccc(C(F)(F)F)c1-c1ccc(NCCc2c[nH]cn2)nc1 [Compound I-20]	67 nM
FC(F)(F)c1ccccc1-c1ccc(NCCN2CCN(c3cccc(Cl)c3)CC2)nc1 [Compound I-23]	7 nM
FC(F)(F)c1ccnc(N2CCN(CCNc3ccc(-c4ccccc4C(F)(F)F)cn3)CC2)n1 [Compound I-25]	26 nM
O=C(O)CCCOc1ccc(-c2ccc(NCC3CCCCC3)nc2)c(C(F)(F)F)c1 [II-2]	66 nM
O=C(NCC1CCCCC1)c1ccc(-c2ccc(NCC3CCCCC3)nc2)c(C(F)(F)F)c1 [II-4]	4 nM
FC(F)(F)c1cc(-c2cccnc2)nn1-c1ccc(NCC2CCCCC2)nc1 [III-1, N-(cyclohexylmethyl)-5-[3-pyridin-3-yl-5-(trifluoromethyl)-1H-pyrazol-1-yl]pyridin-2-amine]	3 nM

More lines, in order of falling IC50, values ahead:

IC50	SMILES
832 nM	FC(F)(F)c1ccccc1-c1ccc(NCCC(c2ccccc2)c2ccccc2)nc1 [Compound I-9]
200 nM	FC(F)(F)c1ccccc1-c1ccc(NC2CCOCC2)nc1 [Compound I-24]
200 nM	O=C(O)C1CCN(C(=O)c2ccc(-c3ccc(NCCc4c(F)cccc4Cl)nc3)c(C(F)(F)F)c2)CC1 [II-1, 1-[4-(6-{[2-(2-chloro-6-fluorophenyl)ethyl]amino}pyridin-3-yl)-3-(trifluoromethyl)benzoyl]piperidine-4-carboxylic acid]
130 nM	O=C(O)C12CCC(CNc3ccc(-c4c(F)cccc4C(F)(F)F)cn3)(CC1)C2 [Compound I-22]
100 nM	FC(F)(F)c1ccccc1-c1ccc(NCCc2c[nH]cn2)nc1 [Compound I-21]
92 nM	FC(F)(F)c1ccccc1-c1ccc(NCc2cccnc2)nc1 [Compound I-19]
53 nM	FC(F)(F)c1cc(-c2nnn[nH]2)ccc1-c1ccc(NCC2CCCCC2)nc1 [Compound I-16]
53 nM	FC(F)(F)c1ccccc1-c1ccc(NCC2CC2)nc1 [Compound I-26]
32 nM	FC(F)(F)c1cccnc1-c1ccc(NCC2CCCCC2)nc1 [Compound I-7]
25 nM	FC(F)(F)c1ccccc1-c1ccc(NCc2ccccc2)nc1 [Compound I-8]
19 nM	O=C(O)[C@H]1CC[C@H](CCNc2ccc(-c3c(F)cccc3C(F)(F)F)cn2)CC1 [Compound I-2]
8 nM	FC(F)(F)c1ccccc1-c1ccc(NCC2CCCCC2)nn1 [Compound I-17]
7 nM	O=C(N[C@H]1CC[C@H](CNc2ccc(-c3ccccc3C(F)(F)F)cn2)CC1)c1ccccc1C(F)(F)F [Compound I-14]
5 nM	O=C(O)c1cccc(-c2ccc(-c3ccc(NCC4CCCCC4)nc3)c(C(F)(F)F)c2)c1 [II-3]
4 nM	NC(=O)c1ccc(-c2ccc(NCC3CCCCC3)nc2)c(C(F)(F)F)c1 [II-5]
